# Results taken from ChEMBL document CHEMBL1138373, “New antifungal flavonoid glycoside from Vitex negundo” (2007).
# Assays:
# Trichophyton benhamiae = assay: Antifungal activity against Trichophyton mentagrophytes by broth micro-dilution technique; format: functional, Arthroderma benhamiae
# Aspergillus fumigatus = assay: Antifungal activity against Aspergillus fumigatus by broth micro-dilution technique; format: functional
# Candida parapsilosis = assay: Antifungal activity against Candida parapsilosis ATCC 22019 by broth micro-dilution technique; format: functional; conditions: Lodderomyces parapsilosis
# Enterococcus faecalis = assay: Antibacterial activity against Streptococcus faecalis by broth micro-dilution technique; format: functional
# Klebsiella pneumoniae = assay: Antibacterial activity against Klebsiella pneumoniae by broth micro-dilution technique; format: functional
# Escherichia coli = assay: Antibacterial activity against Escherichia coli by broth micro-dilution technique; format: functional
# Pseudomonas aeruginosa = assay: Antibacterial activity against Pseudomonas aeruginosa by broth micro-dilution technique; format: functional
# Staphylococcus aureus = assay: Antibacterial activity against Staphylococcus aureus by broth micro-dilution technique; format: functional
# Candida albicans = assay: Antifungal activity against Candida albicans by broth micro-dilution technique; format: functional
# Cryptococcus neoformans = assay: Antifungal activity against Cryptococcus neoformans by broth micro-dilution technique; format: functional
# Sporothrix schenckii = assay: Antifungal activity against Sporothrix schenckii by broth micro-dilution technique; format: functional
Compound,MIC (Trichophyton benhamiae),MIC (Aspergillus fumigatus),MIC (Candida parapsilosis),MIC (Enterococcus faecalis),MIC (Klebsiella pneumoniae),MIC (Escherichia coli),MIC (Pseudomonas aeruginosa),MIC (Staphylococcus aureus),MIC (Candida albicans),MIC (Cryptococcus neoformans),MIC (Sporothrix schenckii)
COC(=O)[C@H]1O[C@@H](Oc2cc(-c3cc(=O)c4c(O)cc(O)cc4o3)ccc2O)[C@H](O)[C@@H](O)[C@@H]1O,6.25 µg/mL,> 50 µg/mL,> 50 µg/mL,> 50 µg/mL,> 50 µg/mL,> 50 µg/mL,> 50 µg/mL,> 50 µg/mL,> 50 µg/mL,6.25 µg/mL,> 50 µg/mL
C[C@]1(O)CC[C@@H]2C(C(=O)O)=CO[C@@H](O[C@H]3O[C@@H](CO)[C@H](O)[C@@H](O)[C@@H]3OC(=O)c3ccc(O)cc3)[C@@H]21,6.25 µg/mL,50 µg/mL,> 50 µg/mL,> 50 µg/mL,25 µg/mL,25 µg/mL,25 µg/mL,50 µg/mL,> 50 µg/mL,6.25 µg/mL,> 50 µg/mL
O=C(OCC1=C[C@@H](O)[C@@H]2C=CO[C@@H](O[C@H]3O[C@@H](CO)[C@H](O)[C@@H](O)[C@@H]3O)[C@H]12)c1ccc(O)cc1,12.5 µg/mL,> 50 µg/mL,> 50 µg/mL,> 50 µg/mL,50 µg/mL,> 50 µg/mL,> 50 µg/mL,> 50 µg/mL,> 50 µg/mL,12.5 µg/mL,> 50 µg/mL
CC1(C)S[C@@H]2[C@H](NC(=O)[C@H](N)c3ccccc3)C(=O)N2[C@H]1C(=O)O [AMPICILLIN],–,–,–,0.02 µg/mL,0.09 µg/mL,–,50 µg/mL,0.09 µg/mL,–,–,–
COc1ccc(-c2oc3cc(OC)c(OC)c(O)c3c(=O)c2OC)cc1OC [ARTEMETIN],25 µg/mL,50 µg/mL,25 µg/mL,> 50 µg/mL,25 µg/mL,50 µg/mL,50 µg/mL,25 µg/mL,> 50 µg/mL,12.5 µg/mL,> 50 µg/mL
OC(Cn1cncn1)(Cn1cncn1)c1ccc(F)cc1F [FLUCONAZOLE],2 µg/mL,2 µg/mL,1 µg/mL,–,–,–,–,–,0.5 µg/mL,1 µg/mL,2 µg/mL
O=c1cc(-c2ccc(O)c(O)c2)oc2cc(O)c([C@@H]3O[C@H](CO)[C@@H](O)[C@H](O)[C@H]3O)c(O)c12 [ISOORIENTIN],12.5 µg/mL,50 µg/mL,> 50 µg/mL,25 µg/mL,25 µg/mL,25 µg/mL,> 50 µg/mL,25 µg/mL,> 50 µg/mL,25 µg/mL,> 50 µg/mL
O=c1cc(-c2ccc(O)c(O)c2)oc2cc(O)cc(O)c12 [LUTEOLIN],50 µg/mL,> 50 µg/mL,25 µg/mL,25 µg/mL,25 µg/mL,50 µg/mL,25 µg/mL,25 µg/mL,> 50 µg/mL,25 µg/mL,> 50 µg/mL
